Test results as given in US9757375B2, “Compounds that inhibit human DNA ligases and methods of treating cancer” (University of Maryland, Baltimore, priority 2007, dated 2017).
Entries after “also recorded” stand apart in the source; their conditions may differ. Read-outs that look alike come from different tables or passages of the source.

What was measured:
[1] = molecular target: T1, hLigI (Homo sapiens, UniProt P18858); assay: High-throughput fluorescence-based DNA joining (ligation) assay; type: biochemical; conditions: for inhibition of hLigI (DNA ligase I), in words: in vitro screen, 100 μmol/L, the 15 hLigI inhibitors inhibited by >50%
T1 construct: made in house
T1 sequence (P18858 whole entry): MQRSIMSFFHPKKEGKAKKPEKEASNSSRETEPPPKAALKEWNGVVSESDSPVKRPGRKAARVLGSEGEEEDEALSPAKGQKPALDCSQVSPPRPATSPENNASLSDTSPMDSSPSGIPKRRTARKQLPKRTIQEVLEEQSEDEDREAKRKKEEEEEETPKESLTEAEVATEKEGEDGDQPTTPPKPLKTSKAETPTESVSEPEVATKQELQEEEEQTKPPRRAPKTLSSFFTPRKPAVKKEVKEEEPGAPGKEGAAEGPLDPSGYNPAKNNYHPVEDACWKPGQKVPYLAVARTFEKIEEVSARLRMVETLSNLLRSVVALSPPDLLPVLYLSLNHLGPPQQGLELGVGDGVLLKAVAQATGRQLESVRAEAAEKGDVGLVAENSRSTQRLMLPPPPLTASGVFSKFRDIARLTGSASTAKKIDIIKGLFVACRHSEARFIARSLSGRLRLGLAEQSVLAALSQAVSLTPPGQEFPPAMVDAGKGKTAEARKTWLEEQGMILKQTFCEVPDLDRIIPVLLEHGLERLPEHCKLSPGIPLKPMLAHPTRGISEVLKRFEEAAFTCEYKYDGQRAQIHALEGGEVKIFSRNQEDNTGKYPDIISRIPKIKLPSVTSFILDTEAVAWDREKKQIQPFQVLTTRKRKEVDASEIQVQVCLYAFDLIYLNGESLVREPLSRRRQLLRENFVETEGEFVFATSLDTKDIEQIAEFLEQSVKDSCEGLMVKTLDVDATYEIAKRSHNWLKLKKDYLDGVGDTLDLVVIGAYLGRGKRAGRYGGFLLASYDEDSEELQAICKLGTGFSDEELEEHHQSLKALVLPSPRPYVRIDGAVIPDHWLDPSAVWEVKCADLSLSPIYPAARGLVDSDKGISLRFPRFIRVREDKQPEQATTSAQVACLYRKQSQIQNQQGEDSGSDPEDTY
Protocol: (§1) Candidate ligase inhibitors identified by CADD were assayed for their ability to inhibit hLigI and T4 DNA ligase using a high-throughput, fluorescence energy transfer-based DNA joining assay (22). Duplicate reactions (30 μL) containing 10 pmol of nicked DNA substrate and either 0.25 pmol of hLigI or 10 units of T4 DNA ligase were incubated in the presence or absence of 100 μmol/L of the putative inhibitor. DNA binding by the candidate DNA ligase inhibitors was measured by displacement of ethidium bromide from DNA as previously described (30).
(§2) The method for screening compounds comprises testing the compound for the ability to inhibit human DNA ligases I, III and IV with a high throughput fluorescence-based ligation assay. In this assay, phosphodiester bond formation covalently links together two oligonucleotides, one of which is a fluorescent donor AF488 that is 11 nucleotides from the 3′ terminus and the other contains a fluorescence acceptor and quencher, BHQ1 that is 15 nucleotides from the 5′ terminus. When these oligonucleotides are present in separate duplexes and in the same nicked or intact duplex, there is no significant quenching of fluorescence because the donor and acceptor are too far apart. As single-strands neither the AF488 oligonucleotide nor the BHQ1 oligonucleotides have significant secondary structure. However, when these oligonucleotides are ligated together, the resultant single strand forms a stable hairpin structure, in which the AF488 and BHQ1 groups are very close together, resulting in efficient intra-molecular quenching of fluorescence. Thus, in the DNA joining assay, the DNA substrate is denatured after incubation with the DNA ligase and then renatured in the presence of a 20-fold excess of an oligonucleotide that is identical to the ligated strand containing the fluorescent door and acceptor except that it lacks these modifications. Using this assay, DNA joining, which results in reduced fluorescence at 518 nm, can be measured rapidly, quantitatively and with high-throughput using a fluorescence plate reader.
(§3) Applicants developed a novel high throughput fluorescence-based ligation assay by modifying the sequence of the oligos to optimize hairpin formation by the single strand ligated product of the high throughput fluorescence-based ligation assay of Chen et al (22). […] Compound stock solutions, which were 10 mM in 0.5% DMSO, were diluted in 0.5% DMSO. Human DNA ligases I and III were assayed with a nicked DNA substrate whereas as the substrate for human DNA ligase IV was two oligonucleotide duplexes with short complementary single strand ends.

[2] = molecular target: T2, human DNA ligase III (Homo sapiens, UniProt P49916); assay: as above; type: biochemical
T2 sequence (P49916 1-862 isoform P49916-4): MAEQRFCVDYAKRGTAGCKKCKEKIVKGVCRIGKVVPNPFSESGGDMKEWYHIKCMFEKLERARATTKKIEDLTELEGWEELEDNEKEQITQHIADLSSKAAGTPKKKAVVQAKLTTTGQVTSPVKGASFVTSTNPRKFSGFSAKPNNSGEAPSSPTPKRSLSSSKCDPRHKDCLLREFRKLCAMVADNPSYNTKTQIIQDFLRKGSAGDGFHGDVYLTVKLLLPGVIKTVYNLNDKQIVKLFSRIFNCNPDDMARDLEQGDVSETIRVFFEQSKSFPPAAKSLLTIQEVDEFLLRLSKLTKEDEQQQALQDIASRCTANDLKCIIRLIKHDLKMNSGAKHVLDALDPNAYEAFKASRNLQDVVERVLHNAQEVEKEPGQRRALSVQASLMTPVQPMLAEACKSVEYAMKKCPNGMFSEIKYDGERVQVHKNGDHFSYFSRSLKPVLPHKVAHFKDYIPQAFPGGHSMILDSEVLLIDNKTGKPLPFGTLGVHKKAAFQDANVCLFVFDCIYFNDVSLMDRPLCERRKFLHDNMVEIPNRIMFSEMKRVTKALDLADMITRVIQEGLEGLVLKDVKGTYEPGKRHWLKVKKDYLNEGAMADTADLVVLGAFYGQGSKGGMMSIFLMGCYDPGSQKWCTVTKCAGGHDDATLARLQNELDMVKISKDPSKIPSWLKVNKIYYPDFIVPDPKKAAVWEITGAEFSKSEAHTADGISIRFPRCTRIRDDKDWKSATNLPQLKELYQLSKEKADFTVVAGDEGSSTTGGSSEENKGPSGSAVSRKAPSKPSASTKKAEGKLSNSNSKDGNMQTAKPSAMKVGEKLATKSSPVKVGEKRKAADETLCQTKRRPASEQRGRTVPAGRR
Description: as §2, §3

[3] = molecular target: human DNA ligase IV (Homo sapiens, UniProt P49917); assay: as above; type: biochemical; conditions: for % activity Inhibition hLigIV 100 uM: Ø not defined (0 in Table 5A)
Sequence of human DNA ligase IV (P49917 whole entry): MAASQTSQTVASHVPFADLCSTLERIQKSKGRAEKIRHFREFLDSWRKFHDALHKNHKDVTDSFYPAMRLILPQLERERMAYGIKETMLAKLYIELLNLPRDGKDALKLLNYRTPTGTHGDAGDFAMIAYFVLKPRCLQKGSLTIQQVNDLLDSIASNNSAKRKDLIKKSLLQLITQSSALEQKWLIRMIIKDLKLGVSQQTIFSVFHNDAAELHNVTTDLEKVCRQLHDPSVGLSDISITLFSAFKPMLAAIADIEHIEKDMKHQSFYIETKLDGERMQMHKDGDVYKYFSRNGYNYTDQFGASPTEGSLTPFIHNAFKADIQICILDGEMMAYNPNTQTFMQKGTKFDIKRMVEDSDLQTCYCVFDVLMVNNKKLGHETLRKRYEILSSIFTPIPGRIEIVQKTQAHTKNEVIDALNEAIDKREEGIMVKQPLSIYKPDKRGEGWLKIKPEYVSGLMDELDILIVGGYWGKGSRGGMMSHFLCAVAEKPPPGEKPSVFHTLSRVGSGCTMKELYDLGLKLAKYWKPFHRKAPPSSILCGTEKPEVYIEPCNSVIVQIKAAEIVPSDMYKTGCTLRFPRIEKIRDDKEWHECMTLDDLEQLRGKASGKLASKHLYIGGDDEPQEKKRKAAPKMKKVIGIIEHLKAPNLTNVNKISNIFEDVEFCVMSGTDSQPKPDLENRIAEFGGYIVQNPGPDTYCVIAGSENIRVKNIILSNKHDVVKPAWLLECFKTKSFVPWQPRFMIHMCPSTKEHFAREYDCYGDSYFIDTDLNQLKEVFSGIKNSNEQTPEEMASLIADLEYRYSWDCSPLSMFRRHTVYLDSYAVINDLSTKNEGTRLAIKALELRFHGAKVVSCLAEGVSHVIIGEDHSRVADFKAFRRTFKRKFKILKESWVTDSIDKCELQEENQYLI
Sequence of human DNA ligase IV (Q13426 whole entry partner): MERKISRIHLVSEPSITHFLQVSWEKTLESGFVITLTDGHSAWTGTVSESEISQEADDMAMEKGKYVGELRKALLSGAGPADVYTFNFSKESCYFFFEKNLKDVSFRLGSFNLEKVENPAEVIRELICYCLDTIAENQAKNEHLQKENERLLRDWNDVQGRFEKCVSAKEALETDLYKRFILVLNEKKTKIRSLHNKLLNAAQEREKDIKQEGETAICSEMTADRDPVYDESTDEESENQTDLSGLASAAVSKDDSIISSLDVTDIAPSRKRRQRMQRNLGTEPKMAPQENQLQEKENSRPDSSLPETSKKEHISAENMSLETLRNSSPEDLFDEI
Description: as §2, §3

[4] = molecular target: T3, T4 DNA ligase (Enterobacteria phage T4, UniProt P00970); assay: High-throughput fluorescence-based DNA joining assay, non-specific inhibitor control; type: biochemical, bacteriophage T4
T3 construct: purchased NEB
T3 sequence (P00970 1-487): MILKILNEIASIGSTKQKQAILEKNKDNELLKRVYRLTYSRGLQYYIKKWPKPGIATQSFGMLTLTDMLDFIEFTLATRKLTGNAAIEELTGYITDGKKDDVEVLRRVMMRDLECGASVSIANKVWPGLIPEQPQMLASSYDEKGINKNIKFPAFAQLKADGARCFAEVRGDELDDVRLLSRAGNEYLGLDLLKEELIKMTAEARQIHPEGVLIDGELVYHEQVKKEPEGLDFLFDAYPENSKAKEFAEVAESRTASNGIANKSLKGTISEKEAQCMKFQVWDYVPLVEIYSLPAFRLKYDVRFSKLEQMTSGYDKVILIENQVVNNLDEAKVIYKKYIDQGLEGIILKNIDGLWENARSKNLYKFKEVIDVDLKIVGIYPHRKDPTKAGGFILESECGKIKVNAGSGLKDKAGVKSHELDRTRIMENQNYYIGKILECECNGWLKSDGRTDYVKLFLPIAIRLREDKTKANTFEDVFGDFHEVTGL
Protocol: as §1
In addition, to identify compounds that may be non-specific inhibitors of DNA joining, the 192 compounds were also assayed for their ability to inhibit bacteriophage T4 DNA ligase, an enzyme that utilizes the same reaction mechanism as hLigI, has similar adenylation and OB-fold domains but lacks a DBD domain. (6) Although this is also an ATP-dependent DNA ligase, it lacks the domain containing the binding pocket targeted by the in silico screen. Compounds that inhibited T4 DNA ligase were eliminated as non-specific inhibitors that most likely bind to the DNA.

[5] = 100 uM, read-out: % activity Inhibition hLigI 100 uM
[6] = 100 uM, Ø not defined (0 in Table 5A)
[7] = read-out: % activity Inhibition LigT4 100 uM
[8] = 100 uM, Ø not defined (0 in Table 5A), read-out: % activity Inhibition hLigIII 100 uM

| Structure (SMILES) | inhibition at 100 µM [1, 5] [%] | % activity Inhibition hLigIII 100 uM [2, 6] | % activity Inhibition hLigIV 100 uM [3] | inhibition at 100 µM [4, 7] [%] | also measured |
| --- | --- | --- | --- | --- | --- |
| O=C(O)c1ccc(C(=O)O)c(C(=O)O)c1 [Compound 53] | 36.4 ± 4.7 | Ø | Ø | 3.7 ± 4.8 | – |
| O=C(O)c1ccc(Sc2ccccn2)c([N+](=O)[O-])c1 [Compound 47] | 24.2 ± 4.3 | Ø | Ø | 2.2 ± 0.7 | – |
| O=C(O)Cc1ccccc1S(=O)(=O)c1ccc(Cl)cc1 [Compound 193] | – | Ø | Ø | – | % activity Inhibition hLigI 100 uM ([1]; 100 uM): 28.2 ± 34.4%; % of inhibition @ 100 μM (Helen's data) hLigI ([1]; 100 μM): NI (NI- no inhibition); % of inhibition @ 100 μM (Helen's data) hLigIII ([2]; 100 μM): NI (NI- no inhibition); % of inhibition @ 100 μM (Helen's data) hLigIV [3]: NI (NI- no inhibition); % activity Inhibition LigT4 100 uM ([4]; 100 uM): 0.44 ± 2.1% |
| O=C(O)Cn1nnnc1-c1ccc(F)cc1 [Compound 37] | 25.2 ± 14.1 | Ø | Ø | 3.7 | – |
| O=C1Nc2c(C(=O)O)cccc2C1=O [Compound 25] | 59.3 ± 7.5 | – | Ø | 12.9 ± 6.3 | inhibition at 100 µM ([1]; 100 μM, read-out: In vitro % inhib hLigI 100): 59 ± 8%; inhibition of hLigI (DNA ligase I), in words [1]: inhibited hLigI; also recorded: specifically inhibit DNA ligases I and III; inhibition at 100 µM ([2]; 100 μM, read-out: In vitro % inhib hLigIII 100): 73 ± 5%; inhibition at 100 µM [2, 8]: 72.8 ± 4.8%; inhibition of human DNA ligase III, in words ([2]; in vitro screen): specifically inhibit DNA ligases I and III; inhibition at 100 µM ([3]; read-out: In vitro % inhib hLigIV 100): 0%; inhibition at 100 µM ([4]; 100 μM, read-out: In vitro % inhib T4 100): 13 ± 6% |
| O=C(O)CN1C(=O)c2ccc([N+](=O)[O-])cc2C1=O [Compound 90] | 20.7 ± 4.8 | Ø | Ø | 1.6 ± 3.1 | – |
| Nc1nonc1C(=O)O [Compound 54] | 32.2 ± 10.5 | Ø | Ø | 6.9 ± 0.45 | – |
| O=C(O)c1ccc(C(=O)c2ccc3c(c2)C(=O)N(CCO)C3=O)cc1 [Compound 46] | – | – | Ø | – | % activity Inhibition hLigI 100 uM ([1]; 100 uM): Ø; inhibition at 100 µM [2, 8]: 21.6 ± 8.56% |
| O=C(NN=Cc1ccc(S(=O)(=O)O)o1)c1ccccc1O [Compound 79] | – | – | – | – | % of inhibition @ 100 μM (Helen's data) hLigI ([1]; 100 μM): NI (NI- no inhibition); % of inhibition @ 100 μM (Helen's data) hLigIII ([2]; 100 μM): NI (NI- no inhibition); % of inhibition @ 100 μM (Helen's data) hLigIV [3]: NI (NI- no inhibition) |
| COC(=O)c1ccc(-n2nnnc2SCC(=O)c2ccc(O)c(O)c2)cc1 [Compound 32] | – | – | – | – | inhibition of hLigI (DNA ligase I), in words [1]: inhibited hLigI |
| COC(=O)c1scc(Br)c1O [Compound 124] | – | – | – | – | inhibition at 100 µM ([1]; 100 μM, read-out: % of inhibition @ 100 μM (Helen's data) hLigI): < 20%; inhibition at 100 µM ([2]; read-out: % of inhibition @ 100 μM (Helen's data) hLigIII): < 20%; inhibition at 100 µM ([3]; read-out: % of inhibition @ 100 μM (Helen's data) hLigIV): < 20% |
